Data set [1] addresses T1, Induced myeloid leukemia cell differentiation protein Mcl-1 (Homo sapiens, UniProt Q07820). Description: Displacement of biotinylated BH3 peptide from N-terminal His6-tagged human Mcl-1 ligand binding domain (172 to 323 residues) expressed in Escherichia coli BL21(DE3) gold pLysS cells preincubated with protein for 2 hrs followed by incubation with BH3 peptide for 2 hrs by DELFIA assay.

For data set [2], the species on record is Homo sapiens. In words: Covalent binding affinity to N-terminal His6-tagged human Mcl-1 ligand binding domain (172 to 323 residues) His252Ala mutant expressed in Escherichia coli BL21(DE3) gold pLysS cells assessed as stable covalent adduct formation by measuring band shift at 100 uM incubated for 16 hrs by SDS PAGE analysis.
Data set [3] has as its target T2, Bcl-2-related protein A1 (Homo sapiens) (UniProt Q16548).
T2 sequence (whole entry): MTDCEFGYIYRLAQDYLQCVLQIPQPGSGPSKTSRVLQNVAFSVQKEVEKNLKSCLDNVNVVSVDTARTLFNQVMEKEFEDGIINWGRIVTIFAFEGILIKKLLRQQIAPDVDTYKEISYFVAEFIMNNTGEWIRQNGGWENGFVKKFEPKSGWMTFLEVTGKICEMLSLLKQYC
Description: Covalent binding affinity to N-terminal His6-tagged human Bfl-1 (1 to 149 residues) assessed as band shift at 100 uM incubated for 16 hrs by SDS PAGE analysis.

For data set [4], the species on record is Homo sapiens. In words: Covalent binding affinity to N-terminal His6-tagged human Mcl-1 ligand binding domain (172 to 323 residues) Lys234Ala mutant expressed in Escherichia coli BL21(DE3) gold pLysS cells assessed as stable covalent adduct formation by measuring band shift at 100 uM incubated for 16 hrs by SDS PAGE analysis.
The target of data set [5] is T1, Induced myeloid leukemia cell differentiation protein Mcl-1. Description: Covalent binding affinity to N-terminal His6-tagged human Mcl-1 ligand binding domain (172 to 323 residues) expressed in Escherichia coli BL21(DE3) gold pLysS cells assessed as stable covalent adduct formation by measuring band shift at 100 uM incubated for 16 hrs by SDS PAGE analysis.
The next data set has as its system A549. Description: Induction of cell lysis in NucLight Red-labeled human A549 cells assessed as cell bursting at 100 uM measured after 20 mins by IncuCyte S3 live cell analysis based fluorescence microscopy. Particulars: a549, 20 min. Type of data set: toxicity.

Structures are written as SMILES. Activity calls are given as the source filed them. No cut-off for these calls is given here. Positions of bridges follow the written chain, without caps; N, C: chain ends. Non-standard residues stand in square brackets, D forms with d. Residues, ends and D or L forms follow the SMILES beside them. *: point of attachment. Benzoyl(2-OMe,5-SO2F) = COc1ccc(S(=O)(=O)F)cc1C(=O)*; Ser(allyl) = C=CCOC[C@H](N)C(=O)O; S5 = C=CCCC[C@](C)(N)C(=O)O; Dap = NC[C@H](N)C(=O)O

T1 sequence (Q07820 whole entry, the tested form may be a part): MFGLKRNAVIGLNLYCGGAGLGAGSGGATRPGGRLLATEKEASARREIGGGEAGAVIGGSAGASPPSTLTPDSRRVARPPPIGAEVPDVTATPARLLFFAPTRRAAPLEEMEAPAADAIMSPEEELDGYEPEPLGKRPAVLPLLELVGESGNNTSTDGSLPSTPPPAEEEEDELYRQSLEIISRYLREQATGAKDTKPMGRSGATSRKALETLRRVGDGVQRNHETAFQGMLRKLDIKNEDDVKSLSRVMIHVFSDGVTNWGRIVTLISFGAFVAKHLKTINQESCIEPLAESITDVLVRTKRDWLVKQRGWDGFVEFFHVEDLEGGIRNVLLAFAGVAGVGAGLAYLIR

The compound `CC[C@H](C)[C@H](NC(=O)[C@H](C)NC(=O)[C@H](CCCNC(=N)N)NC(=O)[C@H](CC(C)C)NC(=O)[C@H](CCC(N)=O)NC(=O)[C@]1(C)CCC/C=C/CCC[C@](C)(NC(C)=O)C(=O)N[C@@H](CNC(=O)c2cc(S(=O)(=O)F)ccc2OC)C(=O)N[C@@H]([C@@H](C)CC)C(=O)N[C@@H](C)C(=O)N1)C(=O)NCC(=O)N[C@@H](CC(=O)O)C(=O)N[C@@H](CCCNC(=N)N)C(=O)N[C@@H](Cc1ccccc1)C(N)=O` (Ac-[S5][Dap](Benzoyl(2-OMe,5-SO2F))IA[S5]QLRAIGDRF-NH2; staple (E) 1-5) yielded an IC50 in data set [1] of 35 nM. For the same compound, the outcome (in the data set filed under Homo sapiens [2]; in the data set listed under Homo sapiens [4]; in data set [5]) was Active. For the same compound, the result in data set [3] was inactive.

For `CC[C@H](C)[C@H](NC(=O)[C@H](CC(=O)O)NC(=O)[C@H](CCCNC(=N)N)NC(=O)[C@H](CC(C)C)NC(=O)[C@H](CCC(N)=O)NC(=O)[C@]1(C)CCC/C=C/CCC[C@](C)(NC(C)=O)C(=O)N[C@@H](CNC(=O)c2cc(S(=O)(=O)F)ccc2OC)C(=O)N[C@@H]([C@@H](C)CC)C(=O)N[C@@H](C)C(=O)N1)C(=O)NCC(=O)N[C@@H](CC(=O)O)C(=O)N[C@@H](CCCNC(=N)N)C(=O)N[C@@H](Cc1ccccc1)C(N)=O` (Ac-[S5][Dap](Benzoyl(2-OMe,5-SO2F))IA[S5]QLRDIGDRF-NH2; staple (E) 1-5), the concentration for half-maximal inhibition (IC50) in data set [1] stood at 30 nM. The result (in the data set listed under Homo sapiens [2]; in the data set listed under Homo sapiens [4]; in data set [5]) was Active. In addition, the result in data set [3] was inactive.

The compound `CC[C@H](C)[C@H](NC(=O)[C@H](CCCNC(=N)N)NC(=O)[C@H](CCCNC(=N)N)NC(=O)[C@H](CC(C)C)NC(=O)[C@H](CCC(N)=O)NC(=O)[C@]1(C)CCC/C=C/CCC[C@](C)(NC(C)=O)C(=O)N[C@@H](CNC(=O)c2cc(S(=O)(=O)F)ccc2OC)C(=O)N[C@@H]([C@@H](C)CC)C(=O)N[C@@H](C)C(=O)N1)C(=O)NCC(=O)N[C@@H](CC(=O)O)C(=O)N[C@@H](CCCNC(=N)N)C(=O)N[C@@H](Cc1ccccc1)C(N)=O` (Ac-[S5][Dap](Benzoyl(2-OMe,5-SO2F))IA[S5]QLRRIGDRF-NH2; staple (E) 1-5) returned a half-maximal inhibitory concentration (IC50) in data set [1] of 24 nM. Moreover, the result (in the data set listed under Homo sapiens [2]; in the data set filed under Homo sapiens [4]; in data set [5]) was Active. Further, in data set [3], the outcome was inactive. In addition, in the data set with A549, the Activity result is “Toxic”.

Regarding `CC[C@H](C)[C@H](NC(=O)[C@H](CNC(=O)c1cc(S(=O)(=O)F)ccc1OC)NC(C)=O)C(=O)N[C@@H](C)C(=O)N[C@@]1(C)CCC/C=C\CCC[C@@](C)(C(=O)N[C@H](C(=O)NCC(=O)N[C@@H](CC(=O)O)C(=O)N[C@@H](C)C(=O)N[C@@H](Cc2ccccc2)C(N)=O)[C@@H](C)CC)NC(=O)[C@H](CCCNC(=N)N)NC(=O)[C@H](CC(C)C)NC(=O)[C@H](CCC(N)=O)NC1=O` (Ac-[Dap](Benzoyl(2-OMe,5-SO2F))IA[S5]QLR[S5]IGDAF-NH2; staple (Z) 4-8), the concentration for half-maximal inhibition (IC50) in data set [1] was found to be 12 nM. The outcome (in the data set listed under Homo sapiens [2]; in the data set filed under Homo sapiens [4]; in data set [5]) was Active. Also, the result in data set [3] was inactive.

Consider `CC[C@H](C)[C@H](NC(=O)[C@H](C)NC(=O)[C@H](CCCNC(=N)N)NC(=O)[C@H](CC(C)C)NC(=O)[C@H](CCC(N)=O)NC(=O)[C@]1(C)CCC/C=C/CCC[C@](C)(NC(C)=O)C(=O)N[C@@H](CNC(=O)c2cc(S(=O)(=O)F)ccc2OC)C(=O)N[C@@H]([C@@H](C)CC)C(=O)N[C@@H](C)C(=O)N1)C(=O)NCC(=O)N[C@@H](CC(=O)O)C(=O)N[C@@H](C)C(=O)N[C@@H](Cc1ccccc1)C(N)=O` (Ac-[S5][Dap](Benzoyl(2-OMe,5-SO2F))IA[S5]QLRAIGDAF-NH2; staple (E) 1-5), for which, in data set [1], the 50% inhibitory concentration (IC50) came out at 17 nM. For the same compound, the result (in the data set listed under Homo sapiens [2]; in the data set listed under Homo sapiens [4]; in data set [5]) was Active. For the same compound, the outcome in data set [3] was inactive.

`CC[C@H](C)[C@H](NC(=O)[C@H](CNC(=O)c1cc(S(=O)(=O)F)ccc1OC)NC(C)=O)C(=O)N[C@@H](C)C(=O)N[C@H]1COC/C=C\CCC[C@@](C)(C(=O)N[C@H](C(=O)NCC(=O)N[C@@H](CC(=O)O)C(=O)N[C@@H](CCCNC(=N)N)C(=O)N[C@@H](Cc2ccccc2)C(N)=O)[C@@H](C)CC)NC(=O)[C@H](CCCNC(=N)N)NC(=O)[C@H](CC(C)C)NC(=O)[C@H](CCC(N)=O)NC1=O` (Ac-[Dap](Benzoyl(2-OMe,5-SO2F))IA[Ser(allyl)]QLR[S5]IGDRF-NH2; staple (Z) 4-8) displayed a half-maximal inhibitory concentration (IC50) in data set [1] of 6.6 nM. Besides, the result (in the data set filed under Homo sapiens [2]; in the data set listed under Homo sapiens [4]; in data set [5]) was Active. Also, in data set [3], the outcome was inactive.

`CC[C@H](C)[C@H](NC(=O)[C@H](CCCNC(=N)N)NC(=O)[C@H](CCCNC(=N)N)NC(=O)[C@H](CC(C)C)NC(=O)[C@H](CCC(N)=O)NC(=O)[C@H](CCC(=O)O)NC(=O)[C@H](C)NC(=O)[C@@H](NC(=O)[C@H](CNC(=O)c1cc(S(=O)(=O)F)ccc1OC)NC(C)=O)[C@@H](C)CC)C(=O)NCC(=O)N[C@@H](CC(=O)O)C(=O)N[C@@H](CCCNC(=N)N)C(=O)N[C@@H](Cc1ccccc1)C(N)=O` (Ac-[Dap](Benzoyl(2-OMe,5-SO2F))IAEQLRRIGDRF-NH2) returned an IC50 in data set [1] of 18 nM.

With `CC[C@H](C)[C@H](NC(=O)[C@H](CCCNC(=N)N)NC(=O)[C@]1(C)CCC/C=C\CCC[C@](C)(NC(=O)[C@@H](NC(=O)[C@@H](CNC(=O)c2cc(S(=O)(=O)F)ccc2OC)NC(C)=O)[C@@H](C)CC)C(=O)N[C@H](CCC(=O)O)C(=O)N[C@@H](CCC(N)=O)C(=O)N[C@@H](CC(C)C)C(=O)N1)C(=O)NCC(=O)N[C@@H](CC(=O)O)C(=O)N[C@@H](CCCNC(=N)N)C(=O)N[C@@H](Cc1ccccc1)C(N)=O`, the IC50 in data set [1] came to 174 nM. For the same compound, the result (in the data set listed under Homo sapiens [2]; in the data set listed under Homo sapiens [4]; in data set [5]) was Active. In addition, the result in data set [3] was inactive.

Consider `CC[C@H](C)[C@H](NC(=O)[C@@H]1CCCCn2cc(nn2)CCC[C@H](NC(=O)[C@H](C)NC(=O)[C@@H](NC(=O)[C@H](CNC(=O)c2cc(S(=O)(=O)F)ccc2OC)NC(C)=O)[C@@H](C)CC)C(=O)N[C@@H](CCC(N)=O)C(=O)N[C@@H](CC(C)C)C(=O)N[C@@H](CCCNC(=N)N)C(=O)N1)C(=O)NCC(=O)N[C@@H](CC(=O)O)C(=O)N[C@@H](CCCNC(=N)N)C(=O)N[C@@H](Cc1ccccc1)C(N)=O`, for which the 50% inhibitory concentration (IC50) in data set [1] is 21 nM. For the same compound, the outcome (in the data set listed under Homo sapiens [2]; in the data set filed under Homo sapiens [4]; in data set [5]) was Active. The result in data set [3] was inactive.

With `CC[C@H](C)[C@H](NC(=O)[C@H](CNC(=O)c1cc(S(=O)(=O)F)ccc1OC)NC(C)=O)C(=O)N[C@@H](C)C(=O)N[C@@]1(C)CCC/C=C\CCC[C@@](C)(C(=O)N[C@H](C(=O)NCC(=O)N[C@@H](CC(=O)O)C(=O)N[C@@H](CCCNC(=N)N)C(=O)N[C@@H](Cc2ccccc2)C(N)=O)[C@@H](C)CC)NC(=O)[C@H](CCCNC(=N)N)NC(=O)[C@H](CC(C)C)NC(=O)[C@H](CCC(N)=O)NC1=O` (Ac-[Dap](Benzoyl(2-OMe,5-SO2F))IA[S5]QLR[S5]IGDRF-NH2; staple (Z) 4-8), the IC50 in data set [1] was determined as 14 nM. The result (in the data set listed under Homo sapiens [2]; in the data set listed under Homo sapiens [4]; in data set [5]) was Active. Also, the result in data set [3] was inactive.

Values taken from ChEMBL document CHEMBL5550138, “Histidine-Covalent Stapled Alpha-Helical Peptides Targeting hMcl-1” (J Med Chem, 2024).
